# Laboratory results taken from US12384813B2, “Polymer linked multimers of guanosine-3′, 5′-cyclic monophosphates” (MIRECA MEDICINES GMBH, priority 2016, dated 2025).
# How the values were obtained:
# [1] = Water solubility of alkyl spacer PLDs; assay type: physicochemical; conditions: alkyl spacers with moderate size
# PKG Iα = target: T1, PKG Iα (Homo sapiens, UniProt Q13976); conditions: cited from earlier work
# T1 sequence (Q13976 1-671): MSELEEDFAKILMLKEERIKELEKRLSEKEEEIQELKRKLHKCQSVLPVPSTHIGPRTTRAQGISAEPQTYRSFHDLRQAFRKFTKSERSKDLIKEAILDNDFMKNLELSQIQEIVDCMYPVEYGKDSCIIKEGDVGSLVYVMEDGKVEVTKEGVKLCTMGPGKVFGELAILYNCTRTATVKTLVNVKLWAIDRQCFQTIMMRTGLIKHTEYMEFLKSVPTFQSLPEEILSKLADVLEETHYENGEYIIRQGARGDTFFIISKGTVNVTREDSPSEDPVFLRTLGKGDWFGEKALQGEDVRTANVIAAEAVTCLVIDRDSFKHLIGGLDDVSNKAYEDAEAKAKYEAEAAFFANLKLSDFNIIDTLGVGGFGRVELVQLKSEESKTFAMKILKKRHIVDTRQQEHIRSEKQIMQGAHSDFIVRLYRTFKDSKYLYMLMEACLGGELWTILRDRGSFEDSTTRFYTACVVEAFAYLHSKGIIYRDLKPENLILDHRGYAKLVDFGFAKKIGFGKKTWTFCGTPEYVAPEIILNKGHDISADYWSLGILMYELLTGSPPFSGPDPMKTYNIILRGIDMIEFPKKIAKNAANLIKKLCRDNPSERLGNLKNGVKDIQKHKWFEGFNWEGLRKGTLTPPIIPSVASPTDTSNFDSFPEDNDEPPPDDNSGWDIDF
# PKG Iβ = target: T2, PKG Iβ (Homo sapiens, UniProt Q13976); assay: In vitro activation of PKG Iβ, ADP-Glo Kinase Assay (luminescence), VASPtide substrate; assay type: biochemical; conditions: compound lacking PET moiety vs compound 5
# T2 construct: made in house; host or cells: Sf9 cells
# T2 sequence (Q13976 1-686 isoform Q13976-2): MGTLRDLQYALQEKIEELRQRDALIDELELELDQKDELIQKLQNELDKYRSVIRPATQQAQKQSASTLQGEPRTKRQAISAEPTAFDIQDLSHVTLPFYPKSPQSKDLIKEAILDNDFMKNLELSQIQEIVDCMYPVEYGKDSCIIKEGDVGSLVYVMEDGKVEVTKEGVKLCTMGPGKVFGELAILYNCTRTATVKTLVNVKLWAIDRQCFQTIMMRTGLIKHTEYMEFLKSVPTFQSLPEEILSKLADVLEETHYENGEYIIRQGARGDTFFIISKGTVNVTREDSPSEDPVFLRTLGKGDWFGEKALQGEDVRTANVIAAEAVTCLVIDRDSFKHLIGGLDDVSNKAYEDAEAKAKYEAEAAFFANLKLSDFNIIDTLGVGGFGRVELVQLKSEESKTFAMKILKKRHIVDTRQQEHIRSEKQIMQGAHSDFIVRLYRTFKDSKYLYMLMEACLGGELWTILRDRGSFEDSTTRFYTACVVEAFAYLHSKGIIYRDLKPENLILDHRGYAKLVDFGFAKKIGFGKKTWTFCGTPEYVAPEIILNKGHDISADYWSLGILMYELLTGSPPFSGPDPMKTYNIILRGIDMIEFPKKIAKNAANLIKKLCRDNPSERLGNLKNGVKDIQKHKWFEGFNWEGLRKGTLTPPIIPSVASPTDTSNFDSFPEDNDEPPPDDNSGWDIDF
# Protocol: (§1) In vitro activation experiments with PKG isozymes Iα, Iβ and II were performed with the commercially available luminescence assay ADP-Glo™ Kinase Assay (Cat. #V9101) from Promega Corporation (Madison, WI, USA) according to the manufacturer's instruction manual (The ADP-Glo™ Kinase Assay Technical Manual #TM313), standardized and conducted by BIAFFIN GmbH & Co KG (Kassel, Germany). Luminescence detection was accomplished with a LUMIstar Optima microplate luminometer from BMG LABTECH GmbH (Ortenberg, Germany). […] Human PKGIβ and PKGII were expressed in Sf9 cells and purified by affinity chromatography.^2 Concentrations of enzymes given below refer to the dimeric form.
# PKG Iβ (0.15 nM), 20 mM Tris (pH 7.4), 10 mM Mg2Cl2, 1 mg/mL BSA, 2.5% DMSO, 130 μM VASPtide, 50 μM ATP, room temperature, 60 min.
# PKG II = target: T3, PKG II (Homo sapiens, UniProt Q13237); assay: In vitro activation of PKG II, ADP-Glo Kinase Assay (luminescence), VASPtide substrate; conditions: compound lacking PET moiety vs compound 5
# T3 sequence (Q13237 1-762): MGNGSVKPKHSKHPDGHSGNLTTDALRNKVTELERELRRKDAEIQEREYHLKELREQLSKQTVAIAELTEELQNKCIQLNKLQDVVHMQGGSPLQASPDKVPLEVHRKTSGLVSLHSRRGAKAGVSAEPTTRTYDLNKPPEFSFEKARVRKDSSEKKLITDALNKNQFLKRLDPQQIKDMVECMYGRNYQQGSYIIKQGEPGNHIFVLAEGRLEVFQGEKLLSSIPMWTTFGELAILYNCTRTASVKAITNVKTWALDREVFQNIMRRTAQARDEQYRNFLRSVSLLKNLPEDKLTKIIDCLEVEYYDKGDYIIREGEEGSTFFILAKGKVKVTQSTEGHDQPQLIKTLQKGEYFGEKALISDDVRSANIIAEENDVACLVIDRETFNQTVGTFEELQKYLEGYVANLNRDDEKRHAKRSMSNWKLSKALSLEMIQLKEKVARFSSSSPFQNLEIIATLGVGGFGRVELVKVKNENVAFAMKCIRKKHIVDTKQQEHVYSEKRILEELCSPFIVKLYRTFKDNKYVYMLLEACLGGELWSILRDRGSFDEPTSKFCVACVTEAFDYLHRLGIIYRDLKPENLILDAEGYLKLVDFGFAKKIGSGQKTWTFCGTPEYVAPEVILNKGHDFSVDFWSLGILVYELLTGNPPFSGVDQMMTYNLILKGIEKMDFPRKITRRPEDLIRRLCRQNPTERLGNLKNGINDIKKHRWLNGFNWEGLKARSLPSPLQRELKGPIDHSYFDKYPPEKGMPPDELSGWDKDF
# Protocol: as §1
# PKG II (0.5 nM), 20 mM Tris (pH 7.4), 10 mM Mg2Cl2, 1 mg/mL BSA, 5 mM (3-mercaptoethanol, 2.5% DMSO, 130 μM VASPtide, 50 μM ATP, room temperature, 120 min.
compound,measurement,setting,value
"Nc1nc2c(nc(SCCCCCCCCCCCCSc3nc4c(=O)[nH]c(N)nc4n3[C@@H]3OC4COP(=O)(O)O[C@H]4C3O)n2[C@@H]2OC3COP(=O)(O)O[C@H]3C2O)c(=O)[nH]1 (stereo partly shown) [compound 16, Guanosine-3′,5′-cyclic monophosphate-[8-thio(dodecanyl)-thio-8]-guanosine-3′,5′-cyclic monophosphate]",water solubility,[1],sufficient water solubility
"Nc1nc2c(nc(Sc3ccccc3N)n2[C@@H]2O[C@@H]3COP(=O)(O)O[C@H]3[C@H]2O)c(=O)[nH]1 [8-APT-cGMP, 8-(2-NH2-Ph-S)-cGMP]",PKG Iα activation potential compared to cGMP (literature),PKG Iα,about 15 fold
"Nc1nc2c(nc(SCC(=O)NCCOCCOCCOCCOCCOCCOCCOCCOCCNC(=O)CSc3nc4c(=O)[nH]c(N)nc4n3C3OC4COP(=O)(O)OC4C3O)n2C2OC3COP(=O)(O)OC3C2O)c(=O)[nH]1 (stereo not shown) [compound 3, Guanosine-3′,5′-cyclic monophosphate-[8-thiomethylamido-(octaethoxy)-ethylamidomethylthio-8]-guanosine-3′,5′-cyclic monophosphate]",decrease of relative PKG Iβ activation compared to compound 5,PKG Iβ,more than 51 fold
same,increase of relative PKG II activation compared to compound 5,PKG II,30 fold
